Patent publication US12202818B2, “Compounds and methods for CD73 modulation and indications therefor” (Opna Bio SA, priority 2020, dated 2025)

Columns and labels:
[1] = target: T1, Human CD73 (amino acid residues 27-549) (Homo sapiens, UniProt P21589); assay: CD73 enzymatic assay (luciferase-based indirect assay, CellTiter-Glo); assay type: biochemical; settings: 0.4 nM CD73, 150 μM AMP, 1 hour at room temperature
T1 construct: Human CD73 (amino acid residues 27-549); His tag (N); made in house; host or cells: E. coli
T1 sequence (P21589 27-549): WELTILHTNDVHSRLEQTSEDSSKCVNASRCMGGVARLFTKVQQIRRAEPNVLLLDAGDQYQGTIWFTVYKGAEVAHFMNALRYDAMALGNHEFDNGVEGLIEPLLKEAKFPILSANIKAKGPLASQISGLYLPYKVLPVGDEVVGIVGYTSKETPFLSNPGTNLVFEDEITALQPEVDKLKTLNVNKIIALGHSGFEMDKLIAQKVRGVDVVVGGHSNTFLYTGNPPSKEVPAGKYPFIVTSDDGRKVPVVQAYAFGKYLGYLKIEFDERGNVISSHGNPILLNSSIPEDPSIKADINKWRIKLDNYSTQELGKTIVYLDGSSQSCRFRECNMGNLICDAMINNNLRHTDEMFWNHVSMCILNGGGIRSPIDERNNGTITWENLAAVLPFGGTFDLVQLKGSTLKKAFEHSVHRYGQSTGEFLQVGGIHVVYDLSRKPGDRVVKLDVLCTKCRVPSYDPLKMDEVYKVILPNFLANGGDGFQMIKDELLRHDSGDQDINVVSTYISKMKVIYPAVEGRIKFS
How it was run: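 Luciferase-coupled readout: AMP left after CD73 turnover suppresses CellTiter-Glo signal (1 μM ATP final, 30 min RT). Reaction beforehand: 150 μM AMP, 0.4 nM E. coli-made His-tagged CD73 residues 27-549, test compound, HEPES pH 7.4 with Tween-20, 1 h RT. % inhibition fitted nonlinearly for IC50.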

[2] = target: T2, human CD73 (Homo sapiens, UniProt P21589); assay: Inhibitor activity against CD73 in cell based assay (CD73 expressing CHO-K1 cells); settings: CHO-K1 cells expressing human CD73, 150 μM AMP, 4 hours of incubation; read-out: CHO-K1 CELL_VARIANT: CD73 IC50
T2 construct: expressed in transfected cells
T2 sequence (P21589 27-549): T1 sequence (P21589 27-549)
How it was run: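 AMP (150 μM) was added alongside 8 titrated compound doses (maximum 10 μM, 1:3 steps) to CHO-K1 cells stably expressing human CD73. After 4 h, supernatant AMP was measured indirectly with CellTiter-Glo 2.0 plus 1 μM ATP (30 min, RT). % inhibition versus high and low controls was fitted nonlinearly for IC50.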

Compound | IC50 [1] [µM] | IC50 [2] [µM]
CC1COCCN1c1ccnc(O[C@@H]2CCN(c3cn[nH]c(=O)c3Cl)C2)c1 (stereo partly drawn) [P-0092, 4-chloro-5-((3R)-3-((4-(3-methylmorpholino)pyridin-2-yl)oxy)pyrrolidin-1-yl)pyridazin-3(2H)-one] | 0.001 to 10 | 0.001 to 10
CC1CCCCN1c1ccnc(O[C@@H]2CCN(c3cn[nH]c(=O)c3Cl)C2)c1 (stereo partly drawn) [P-0094, 4-chloro-5-((3R)-3-((4-(2-methylpiperidin-1-yl)pyridin-2-yl)oxy)pyrrolidin-1-yl)pyridazin-3(2H)-one] | 0.001 to 10 | 0.001 to 10
Cc1nn(CC2(C)COC2)c(C)c1-c1ccnc(O[C@@H]2CCN(c3cn[nH]c(=O)c3Cl)C2)c1 [P-0095, (R)-4-chloro-5-(3-((4-(3,5-dimethyl-1-((3-methyloxetan-3-yl)methyl)-1H-pyrazol-4-yl)pyridin-2-yl)oxy)pyrrolidin-1-yl)pyridazin-3(2H)-one] | 0.001 to 10 | 0.001 to 10
Cc1nn(C)c(C)c1-c1ccnc(O[C@@H]2CCN(c3cnn(CCCO)c(=O)c3C#N)C2)c1 [P-0097, (R)-2-(3-hydroxypropyl)-3-oxo-5-(3-((4-(1,3,5-trimethyl-1H-pyrazol-4-yl)pyridin-2-yl)oxy)pyrrolidin-1-yl)-2,3-dihydropyridazine-4-carbonitrile] | 0.001 to 10 | 0.001 to 10
CC1(C)CC=C(c2ccnc(O[C@@H]3CCN(c4cn[nH]c(=O)c4Cl)C3)c2)CC1 [P-0099, (R)-4-chloro-5-(3-((4-(4,4-dimethylcyclohex-1-en-1-yl)pyridin-2-yl)oxy)pyrrolidin-1-yl)pyridazin-3(2H)-one] | 0.001 to 10 | 0.001 to 10
N#CC1CC=C(c2ccnc(O[C@@H]3CCN(c4cn[nH]c(=O)c4Cl)C3)c2)CC1 (stereo partly drawn) [P-0100, 4-(2-(((R)-1-(5-chloro-6-oxo-1,6-dihydropyridazin-4-yl)pyrrolidin-3-yl)oxy)pyridin-4-yl)cyclohex-3-ene-1-carbonitrile] | 0.001 to 10 | 0.001 to 10
CC(=O)N1CCN(c2ccnc(O[C@@H]3CCN(c4cn[nH]c(=O)c4Cl)C3)c2)[C@H](C)C1 [P-0104, 5-((R)-3-((4-((R)-4-acetyl-2-methylpiperazin-1-yl)pyridin-2-yl)oxy)pyrrolidin-1-yl)-4-chloropyridazin-3(2H)-one] | 0.001 to 10 | 10 to 100
COc1ccc2c(c1)cc(-c1ccnc(O[C@@H]3CCN(c4cnn(CCO)c(=O)c4Cl)C3)c1)n2C [P-0106, (R)-4-chloro-2-(2-hydroxyethyl)-5-(3-((4-(5-methoxy-1-methyl-1H-indol-2-yl)pyridin-2-yl)oxy)pyrrolidin-1-yl)pyridazin-3(2H)-one] | 0.001 to 10 | 0.001 to 10
O=c1c(Cl)c(N2CC[C@@H](Oc3cc(N4[C@@H]5CC[C@H]4CC(F)(F)C5)ccn3)C2)cnn1CCO [P-0107, 4-chloro-5-((R)-3-((4-((1R,5S)-3,3-difluoro-8-azabicyclo[3.2.1]octan-8-yl)pyridin-2-yl)oxy)pyrrolidin-1-yl)-2-(2-hydroxyethyl)pyridazin-3(2H)-one] | 0.001 to 10 | 10 to 100
COc1ccc2c(c1)cc(-c1ccnc(O[C@@H]3CCN(c4cn[nH]c(=O)c4Cl)C3)c1)n2C [P-0108, (R)-4-chloro-5-(3-((4-(5-methoxy-1-methyl-1H-indol-2-yl)pyridin-2-yl)oxy)pyrrolidin-1-yl)pyridazin-3(2H)-one] | 0.001 to 10 | 0.001 to 10
CC(C)c1cc(Nc2cccnc2O[C@@H]2CCN(c3cn[nH]c(=O)c3Cl)C2)n(C)n1 [P-0109, (R)-4-chloro-5-(3-((3-((3-isopropyl-1-methyl-1H-pyrazol-5-yl)amino)pyridin-2-yl)oxy)pyrrolidin-1-yl)pyridazin-3(2H)-one] | 0.001 to 10 | 0.001 to 10
O=c1[nH]ncc(N2CC[C@@H](Oc3cc(N4[C@@H]5CC[C@H]4CC(F)(F)C5)ccn3)C2)c1Cl [P-0111, 4-chloro-5-((R)-3-((4-((1R,5S)-3,3-difluoro-8-azabicyclo[3.2.1]octan-8-yl)pyridin-2-yl)oxy)pyrrolidin-1-yl)pyridazin-3(2H)-one] | 0.001 to 10 | 10 to 100
Cc1nn(C)c(C)c1-c1cc(O[C@@H]2CCN(c3cnn(CCO)c(=O)c3Cl)C2)ncc1F [P-0115, (R)-4-chloro-5-(3-((5-fluoro-4-(1,3,5-trimethyl-1H-pyrazol-4-yl)pyridin-2-yl)oxy)pyrrolidin-1-yl)-2-(2-hydroxyethyl)pyridazin-3(2H)-one] | 0.001 to 10 | 0.001 to 10

Further lines, results first:

IC50 [1] [µM] | IC50 [2] [µM] | Compound
0.001 to 10 | 0.001 to 10 | Cc1noc(C)c1-c1ccnc(O[C@@H]2CCN(c3cnn(CCCO)c(=O)c3Cl)C2)c1 [P-0090, (R)-4-chloro-5-(3-((4-(3,5-dimethylisoxazol-4-yl)pyridin-2-yl)oxy)pyrrolidin-1-yl)-2-(3-hydroxypropyl)pyridazin-3(2H)-one]
0.001 to 10 | 0.001 to 10 | N#CC1CCC(c2ccnc(O[C@@H]3CCN(c4cn[nH]c(=O)c4Cl)C3)c2)CC1 (stereo partly drawn) [P-0091, (R)-4-(2-((1-(5-chloro-6-oxo-1,6-dihydropyridazin-4-yl)pyrrolidin-3-yl)oxy)pyridin-4-yl)cyclohexane-1-carbonitrile]
0.001 to 10 | 0.001 to 10 | CC1CCCN1c1ccnc(O[C@@H]2CCN(c3cn[nH]c(=O)c3Cl)C2)c1 (stereo partly drawn) [P-0093, 4-chloro-5-((3R)-3-((4-(2-methylpyrrolidin-1-yl)pyridin-2-yl)oxy)pyrrolidin-1-yl)pyridazin-3(2H)-one]
0.001 to 10 | 0.001 to 10 | Cc1nn(CC2(C)COC2)c(C)c1-c1ccnc(O[C@H]2CN(c3cn[nH]c(=O)c3Cl)C[C@@H]2F)c1 [P-0096, 4-chloro-5-((3S,4S)-3-((4-(3,5-dimethyl-1-((3-methyloxetan-3-yl)methyl)-1H-pyrazol-4-yl)pyridin-2-yl)oxy)-4-fluoropyrrolidin-1-yl)pyridazin-3(2H)-one]
0.001 to 10 | 10 to 100 | CC(C)c1cc(Nc2cccnc2O[C@@H]2CCN(c3cnn(CCO)c(=O)c3Cl)C2)n(C)n1 [P-0101, (R)-4-chloro-2-(2-hydroxyethyl)-5-(3-((3-((3-isopropyl-1-methyl-1H-pyrazol-5-yl)amino)pyridin-2-yl)oxy)pyrrolidin-1-yl)pyridazin-3(2H)-one]
0.001 to 10 | 0.001 to 10 | O=c1c(Cl)c(N2CC[C@@H](Oc3ncccc3NC3CCC(F)(F)CC3)C2)cnn1CCO [P-0102, (R)-4-chloro-5-(3-((3-((4,4-difluorocyclohexyl)amino)pyridin-2-yl)oxy)pyrrolidin-1-yl)-2-(2-hydroxyethyl)pyridazin-3(2H)-one]
0.001 to 10 | 10 to 100 | CC(=O)N1CCN(c2ccnc(O[C@@H]3CCN(c4cn[nH]c(=O)c4Cl)C3)c2)[C@@H](C)C1 [P-0103, 5-((R)-3-((4-((S)-4-acetyl-2-methylpiperazin-1-yl)pyridin-2-yl)oxy)pyrrolidin-1-yl)-4-chloropyridazin-3(2H)-one]
0.001 to 10 | 0.001 to 10 | Cc1ccnc(C(C)C)c1Nc1cccnc1O[C@@H]1CCN(c2cn[nH]c(=O)c2Cl)C1 [P-0105, (R)-4-chloro-5-(3-((3-((2-isopropyl-4-methylpyridin-3-yl)amino)pyridin-2-yl)oxy)pyrrolidin-1-yl)pyridazin-3(2H)-one]
0.001 to 10 | 0.001 to 10 | O=c1[nH]ncc(N2CC[C@@H](Oc3ncccc3NC3CCC(F)(F)CC3)C2)c1Cl [P-0110, (R)-4-chloro-5-(3-((3-((4,4-difluorocyclohexyl)amino)pyridin-2-yl)oxy)pyrrolidin-1-yl)pyridazin-3(2H)-one]
0.001 to 10 | 0.001 to 10 | Cc1nn(CC2(C)COC2)c(C)c1-c1ccnc(O[C@@H]2CCN(c3cnn(CCO)c(=O)c3Cl)C2)c1 [P-0112, (R)-4-chloro-5-(3-((4-(3,5-dimethyl-1-((3-methyloxetan-3-yl)methyl)-1H-pyrazol-4-yl)pyridin-2-yl)oxy)pyrrolidin-1-yl)-2-(2-hydroxyethyl)pyridazin-3(2H)-one]
0.001 to 10 | 0.001 to 10 | Cc1nn(C)c(C)c1-c1ccnc(O[C@@H]2CCN(c3cn[nH]c(=O)c3)C2)c1 [P-0113, (R)-5-(3-((4-(1,3,5-trimethyl-1H-pyrazol-4-yl)pyridin-2-yl)oxy)pyrrolidin-1-yl)pyridazin-3(2H)-one]
0.001 to 10 | 0.001 to 10 | Cc1nn(C)c(C)c1-c1ccnc(O[C@@H]2CCN(c3cn[nH]c(=O)c3C#N)C2)c1 [P-0114, (R)-3-oxo-5-(3-((4-(1,3,5-trimethyl-1H-pyrazol-4-yl)pyridin-2-yl)oxy)pyrrolidin-1-yl)-2,3-dihydropyridazine-4-carbonitrile]
